Tests used:
[1] = test system: ATF4, p-eIF2a, HIF1α protein in retina; test: Retinal immunoblot of ATF4, p-eIF2a and HIF1α after IP dosing, normoxic and OIR retinas; assay type: in vivo, mouse; settings: IP 30 mpk, 4 hours after administration, OIR neonates, immunoblot (FIG. 13)
Method: Normoxic and OIR eye retinas were dissected 4 hours after Compound 39 administration and the harvested samples were kept on ice and homogenized using Precellys (500 μL tubes) tissue homogenizer in 300 μL LSD Sample/Lysis buffer. Homogenized samples were then centrifuged to separate supernatant from debris. Lysates were separated by SDS-PAGE and immunoblotted for ATF4 (D4B8), p-eIF2a (D9G8), and HIF1α (Novus™, cat. NB100-449) and control protein Actinin (Cell Signaling™, cat. 3134S).

GCN2 = test: DDIT3 gene expression (qPCR) in GCN2 knockout, PERK knockout and WT cells; assay type: cell-based; settings: GCN2 knockout, 250 nM, five hours, qPCR (FIG. 10D)
Method: To determine if DDIT3 activation by Compound 39 is dependent on GCN2 activation, rather than PERK, the following experiment was performed. GCN2 knockout cells (CRL-2978™), PERK knockout cells (CRL-2976™), or WT controls cells (ATCC CRL-2977™) were cultured to near confluency and treated for five hours with a fixed concentration (250 nM) of Compound 39. Following treatment, RNA was extracted using the RNeasy® 96-Kit (Qiagen), and cDNA was next generated using Superscript™ IV VILO™ Master Mix (Thermofisher®). qPCR was performed using standard TaqMan reagents and conditions. DDIT3 gene expression was detected using primer Hs00358796_g1 and Tbp was used as a control gene using primer (Hs99999910_m1).

DDIT3 expression = test: DDIT3 gene expression (qPCR) in HRMEC; assay type: cell-based, human; settings: five hours, quarter-log dilutions from 10 μM, qPCR (FIG. 10C)
Method: Primary Human Retinal Microvascular Endothelial Cells (HRMEC—Cell Systems™ Corp., ACBRI 181; Lot #181.04.02.02.02) were cultured in Vascular Cell Basal Medium (ATCC® Lot 90909277) with Endothelial Cell Growth Kit-VEGF (ATCC Lot 80720201) with additional FBS added to a final concentration of 5% FBS. Cells were seeded in a 96-well plate at near confluency and treated the next day with Compound 39 for five hours. A dose response was generated using quarter-log dilutions using 10 μM as the starting concentration. Following treatment, RNA was extracted using the RNeasy® 96-Kit (Qiagen®), and cDNA was next generated using Superscript™ IV VILO™ Master Mix (Thermofisher®). qPCR was performed using standard TaqMan® reagents and conditions. DDTI3 gene expression was detected using primer Hs00358796_g1 and Tbp was used as a control gene using primer (Hs99999910_m1). Peak activation of DDIT3 expression was detected at ˜250 nM Compound 39.

[2] = test system: ATF4 protein expression in retina; test: Retinal ATF4 protein immunoblot after IP dosing, adult retinas; assay type: in vivo, mouse; settings: IP 30 and 60 mpk, adult retinas 4 hours post administration, immunoblot vs Actinin (FIG. 11C)
Method: Intraperitoneally administered Compound 39 activated ATF4 protein expression at 30 and 60 mpk. Adult eye retinas were dissected 4 hours post Compound 39 administration and the harvested samples were kept on ice and homogenized using Precellys™ (500 μL tubes) tissue homogenizer in 300 μL MSD Tris Lysis buffer containing Pierce Protease Inhibitor Complete Mini tablet (ThermoScientific™ A32963). Homogenized samples were then centrifuged to separate supernatant from debris. Lysates were separated by SDS-PAGE and immunoblotted for ATF4 (D4B8) and control protein Actinin (Cell Signaling, cat. 3134S).

CNc1nc2ccc(-c3c(C)ccc(C(=O)c4c(-c5ccccc5)n(C)n(-c5ccccc5)c4=O)c3N)cc2s1 [Compound 39, 4-(2-Amino-4-methyl-3-(2-(methylamino)benzo[d]thiazol-6-yl)benzoyl)-1-methyl-2,5-diphenyl-1H-pyrazol-3(2H)-one]
HIF1α protein levels in retina [1]: downregulated | levels of ATF4 protein in retina [1]: increased | phospho-eIF2α levels in retina [1]: increased | dependence of DDIT3 induction on GCN2 or PERK (GCN2): dependent on GCN2 but not PERK | concentration of peak activation of DDIT3 expression (DDIT3 expression): ~250 nM | levels of ATF4 protein in retina [2]: increased

From patent US20240245680A1, “Methods of Treating Retinal Vasculopathies” (Unity Biotechnology, Inc., priority 2021, published 2024)
